# Reference: patent US11420977B2, “Late SV40 (LSF) inhibitors” (Trustees of Boston University, priority 2018, dated 2022)
# How the values were obtained:
# [1] = molecular target: T1, tubulin methylation by SET8 (Sus scrofa, UniProt M3V851); assay: In vitro methylation assay, tubulin methylation by SET8; format: biochemical, porcine; settings: at 100 μM (FIG. 5B lane 4); no LSF added
# T1 construct: consistent with the presence of LSF in the tubulin preparations; purchased MP-Bioscience; host or cells: porcine brain (tubulin); GST-SET8 recombinant
# Description: (§1) One μg of recombinant GST-SET8 (in 50% glycerol) and 2 μg of the purified tubulin (MP-Bioscience) were incubated with radioactively labeled [3H] AdoMet at room temperature for overnight. As indicated, recombinant His-LSF protein or FQI1 inhibitor were added to the reaction. Samples were separated by electrophoresis through a 10% Tricine Gel (Invitrogen) and the gel was stained with Coomassie Brilliant Blue and incubated with EN3HANCE (PerkinElmer) solution. The gel was dried and exposed to autoradiography film for 1 week. Two […] of each peptide and 2 μg of purified SET8 or full-length SETD2 (Active Motif) were incubated with radioactively labeled [3H] AdoMet at room temperature overnight. Samples were spotted onto P81 filters (Whatman 3698325) and the filter were washed 3 times with 0.3 M ammonium bicarbonate. The ratio of incorporated [^3H]CH3 was determined using liquid scintillation counting.
# [2] = test system: tubulin methylation by SET8; assay: as above; format: biochemical, porcine; settings: with 862 nM LSF (FIG. 9B)
# Description: as §1
# [3] = molecular target: T2, SET8 methylation of Histone H4 (Homo sapiens, UniProt Q9NQR1); assay: In vitro methylation assay, SET8 methylation of Histone H4; format: biochemical; settings: histone H4 as substrate (FIG. 5C)
# T2 construct: using full-length or overlapping segments of SET8 fused to GST; made in house; host or cells: E. coli
# Description: as §1
# tubulin = molecular target: T3, tubulin (Sus scrofa, UniProt P02550+P02554); assay: Tubulin polymerization assay (Cytoskeleton kit); format: biochemical; settings: FIG. 4C
# T3 construct: purchased Cytoskeleton
# Description: Quantitative determination of tubulin polymerization in vitro was carried out using the in vitro polymerization assay kits from either Millipore (17-10194) or Cytoskeleton (FQI1 assay only) according to the manufacturer's conditions. For the Millipopre kit, thawed tubulin was mixed with purified His-LSF, His-SET8 proteins or FQI1 in 70 μL final volumes of 1×PB-GTP solutions, and the 96-well plate was transferred to the pre-warmed (37° C.) SpectraMax M5 Microplate Reader to read UV-Visible Absorbance. Tubulin polymerization was followed by measuring the turbidity variation (light scattering) every 1 min at 350 nm for 1 hr.
# LSF-tubulin interaction = molecular target: T4, LSF-tubulin interaction (Homo sapiens, UniProt Q12800); assay: Co-immunoprecipitation of LSF with endogenous α-tubulin from HEK293T cells; format: cell-based; settings: 2.5 μM for 24 hr
# T4 construct: endogenous in cells; host or cells: HEK293T
# Description: HEK293T, HeLa and COS7 cells were cultured in DMEM media supplemented with 10% FBS. FQI1 treatment of HEK293T cells was for 24 hours at 37° C. with 2.5 μM FQI1. Immunoprecipitation (IP) and immunofluorescence experiments were carried out as described previously. For the immunoprecipitation, 1 mg of total HEK293T cellular extract was incubated with 5 μg of either anti-SET8 antibody (Active Motif) or anti-LSF antibody (Millipore). The immunoprecipitates were blotted with anti-α tubulin, anti-β tubulin (Sigma T9026, T8328), anti-SET8 or anti-LSF (BD) antibodies as per the manufacturer's dilution recommendations. Cellular extracts were also immunoprecipitated with normal IgG (Cell Signaling Technology) as a negative control for all IP experiments.
# synchronized HCC cells = assay: Mitotic phenotypes in synchronized HCC cells; format: cell-based; settings: cells synchronized at G1/S border, released in presence of 5 μM
# Description: FIG. 4A is a graph showing tubulin polymerization assay in the presence of low concentrations of LSF (Millipore kit). FIG. 4B are bands showing co-immunoprecipitation of LSF with endogenous α-tubulin from HEK293T cells which was disrupted upon treatment with 2.5 μM FQI1 for 24 hr. FIG. 4C is a graph showing tubulin polymerization assay in the presence of FQI1 and FQI2 (Cytoskeleton kit). Nocodazole was used as a control to inhibit polymerization. […] Cells were synchronized at the G1/S border and released in presence of 5 μM FQI1. Fixed cells were stained with α-tubulin antibody and DAPI.
# synchronized HeLa cells = assay: Mitotic defects in synchronized HeLa cells; format: cell-based, human
# Description: FIG. 8B is an image showing DAPI staining of synchronized cells, treated as indicated in panel FIG. 8A and analyzed at 20× magnification. Samples were collected at 0, 3, 6, and 19 hours post release from a G1/S block in presence of DMSO or FQI1. Insets represent individual cells in more detail. Arrows represent cells in metaphase or prometaphase, respectively, at the 6 hour time point. FIG. 8C is a bar graph showing quantification from 75-100 total cells analyzed by DNA and α-tubulin morphologies, indicating cells containing multi-asters, at 9 hours post release from a G1/S block. Data are representative of 2 experiments. FIG. 8D is a graph showing that the mitotic arrest mediated by limited FQI1 treatment of synchronized cells is reversible. Synchronized cells were released in the presence of 5 μM of FQI1 from a G1/S block. Ten hours after the release, the cells were washed and then either incubated with media alone or re-incubated with media in the presence of 5 μM FQI1. Samples were collected 24 hours post release. Fixed cells were stained with propidium iodide to analyze DNA content. […]
# RPE-hTERT Flp-In cells = assay: FQI34/FQI1 comparison, mitotic defects in RPE-hTERT Flp-In cells; format: cell-based; settings: one hour treatment; FIG. 33
# Description: RPE-hTERT Flp-In cells were incubated in serum-free DMEM:F12 media for 24 hours to synchronize the cells in G0/G1. Cells were stimulated to reenter the cell cycle with DMEM:F12 media containing 10% Fetal Bovine Serum. After 24 hours, the cells were treated with DMSO (vehicle), FQI1 (2.5 μM or 5 μM), or FQI34 (250 nM or 500 nM) for one hour. The cells were washed twice with 1×Phosphate-buffered Saline and fixed with PHEM (3.7% formaldehyde in 100 mM PIPES at pH 6.8, 10 mM EGTA, 1 mM magnesium chloride, and 0.2% Triton X-100) for 10 minutes at room temperature. The fixed cells were stained for α-tubulin using a mouse anti-α-tubulin antibody (Fisher #62204). Secondary antibodies were: DMSO/FQI1 samples—goat anti-mouse IgG conjugated to Alexa 546 (Thermo Fisher #A11003); FQI34 samples—goat anti-mouse IgG conjugated to Texas Red (Fisher #T-862). DNA was stained with Hoechst 33342. Cells were imaged using a Nikon NiE using the 40× objective and images were captured using a DS-Qi1 Mc 12 bit camera. Scale bars and merged images were generated using Fiji software.
# aggressive HCC cell line = settings: in vitro; cited from earlier work
# HCC tumors = settings: cited from earlier work
# SNU-423 cells = assay: MTS cell proliferation assay, SNU-423; format: cell-based; settings: Homo sapiens, 120 hrs incubation
# Description: (§2) Cell lines and culture conditions: Human colon cancer cells Caco-2, HT29 and HCT15, human pancreatic cancer cells BxPC3, CFPAC-1, and CAPAN-2, liver cancer cells SNU423 and kidney cells HEK293, were obtained from American Type Culture Collection (Rockville, USA). HeLa, DLD1, U937, THP-1, and NIH3T3 cells were obtained from ATCC. Huh7 cells were obtained from (Japanese Cancer Resources Bank). HeLa cells, Huh7, DLD1 and NIH-3T3 cells were cultured in DMEM (Dulbecco's modification of Eagle's Medium; Corning) supplemented with 10% Fetal Bovine Serum (FBS; Invitrogen) and 10% Fetal Calf Serum (FCS; Atlanta Biologicals) respectively. U937, BxPC3, HCT15, SNU423 and THP-1 cells were grown in RPMI-1640 (Roswell Park Memorial Institute; Corning) supplemented with 10% Fetal Bovine Serum (FBS; Invitrogen). CFPAC-1 cells were cultured in Iscove's Modified Dulbecco's Medium (ATCC) supplemented with 10% FBS. CAPAN-2 and HT29 cells were cultured in McCoy's 5a medium supplemented with 10% FBS. Caco2 and HEK293 cells were grown in Eagle's Minimum Essential Medium (ATCC) with final 20% FBS concentration. All cells were maintained at 37° C. in 5% CO2 at constant 70% humidity.
# (§3) MTS cell proliferation assay: Cells were detached from the plates using trypsin (0.25% for 3 mins, ATCC) and counted using a hemocytometer and were plated at 3000-1500 cells per well, in a 96-well format. The cells were seeded in the inner wells of 96 well plates, and media was added to the outer wells (blank). For NIH-3T3, 1500 cells were seeded in the inner wells of 96-well plates, and after 20 hours cells were treated with compound or DMSO (vehicle control) at appropriate concentrations (DMSO at final concentration of 1%). For other adherent cells 3000 HeLa, BxPC3, CFPAC-1, CAPAN-2, HEK293, HCT15, HT29, CaCo2, DLD1, Huh7 or SNU423 cells were seeded in in each well approximately 20 hrs prior to the treatment. For U937 and THP-1 suspension cells, 2500 cells were added to the wells of a 96-well plate on the day of treatment. After a 72-hour (or 120 hrs for BxPC3, CAPAN-2, SNU423) incubation with compound or vehicle, cell growth was assessed via the Promega CellTiter 96® AQueous One Solution Cell Proliferation Assay, a colorimetric method to determine the number of viable cells. 20 μL of the CellTiter 96® AQueous One Solution Reagent was added directly into cultured wells and incubated for approximately one hour, after which the absorbance at 490 nm was read with a 96-well plate reader (Opys MR Microplate Reader). GI50 values were determined from plots of the percentage of compound-treated cell growth to vehicle cell growth vs. compound concentration (GraphPad Prism; non-linear regression, log inhibitor verse normalized response with variable slope).
# HuH7 cells = assay: MTS cell proliferation assay, HuH7; format: cell-based; settings: Homo sapiens, Huh-7, 72-hour incubation
# Description: as §2, §3
# CaCo-2 cells = assay: MTS cell proliferation assay, CaCo-2; format: cell-based; settings: Homo sapiens, 72-hour incubation
# Description: (§4) Cell lines and culture conditions: Human colon cancer cells Caco-2, HT29 and HCT15, human pancreatic cancer cells BxPC3, CFPAC-1, and CAPAN-2, liver cancer cells SNU423 and kidney cells HEK293, were obtained from American Type Culture Collection (Rockville, USA). HeLa, DLD1, U937, THP-1, and NIH3T3 cells were obtained from ATCC. Huh7 cells were obtained from (Japanese Cancer Resources Bank). HeLa cells, Huh7, DLD1 and NIH-3T3 cells were cultured in DMEM (Dulbecco's modification of Eagle's Medium; Corning) supplemented with 10% Fetal Bovine Serum (FBS; Invitrogen) and 10% Fetal Calf Serum (FCS; Atlanta Biologicals) respectively. […]
# (§5) MTS cell proliferation assay: Cells were detached from the plates using trypsin (0.25% for 3 mins, ATCC) and counted using a hemocytometer and were plated at 3000-1500 cells per well, in a 96-well format. […] After a 72-hour (or 120 hrs for BxPC3, CAPAN-2, SNU423) incubation with compound or vehicle, cell growth was assessed via the Promega CellTiter 96® AQueous One Solution Cell Proliferation Assay, a colorimetric method to determine the number of viable cells. 20 μL of the CellTiter 96® AQueous One Solution Reagent was added directly into cultured wells and incubated for approximately one hour, after which the absorbance at 490 nm was read with a 96-well plate reader (Opys MR Microplate Reader). […]
# HCT-15 cells = assay: MTS cell proliferation assay, HCT-15; format: cell-based; settings: Homo sapiens, 72-hour incubation
# Description: as §4, §5
# HT-29 cells = assay: MTS cell proliferation assay, HT-29; format: cell-based; settings: Homo sapiens, 72-hour incubation
# Description: as §4, §5
# T3 sequence (P02550 whole entry): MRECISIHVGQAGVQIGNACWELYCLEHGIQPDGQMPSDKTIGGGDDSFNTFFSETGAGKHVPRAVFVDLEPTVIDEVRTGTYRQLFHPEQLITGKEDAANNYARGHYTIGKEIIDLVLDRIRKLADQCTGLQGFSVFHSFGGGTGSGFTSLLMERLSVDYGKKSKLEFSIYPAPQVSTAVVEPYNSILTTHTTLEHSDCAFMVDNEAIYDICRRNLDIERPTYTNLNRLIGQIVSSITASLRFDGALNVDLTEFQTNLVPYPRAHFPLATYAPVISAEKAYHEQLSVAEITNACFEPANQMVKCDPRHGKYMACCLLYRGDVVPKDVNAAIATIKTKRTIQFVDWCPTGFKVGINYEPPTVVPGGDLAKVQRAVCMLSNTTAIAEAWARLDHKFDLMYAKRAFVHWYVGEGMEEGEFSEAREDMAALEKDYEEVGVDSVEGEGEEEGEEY
# T3 sequence (P02554 whole entry): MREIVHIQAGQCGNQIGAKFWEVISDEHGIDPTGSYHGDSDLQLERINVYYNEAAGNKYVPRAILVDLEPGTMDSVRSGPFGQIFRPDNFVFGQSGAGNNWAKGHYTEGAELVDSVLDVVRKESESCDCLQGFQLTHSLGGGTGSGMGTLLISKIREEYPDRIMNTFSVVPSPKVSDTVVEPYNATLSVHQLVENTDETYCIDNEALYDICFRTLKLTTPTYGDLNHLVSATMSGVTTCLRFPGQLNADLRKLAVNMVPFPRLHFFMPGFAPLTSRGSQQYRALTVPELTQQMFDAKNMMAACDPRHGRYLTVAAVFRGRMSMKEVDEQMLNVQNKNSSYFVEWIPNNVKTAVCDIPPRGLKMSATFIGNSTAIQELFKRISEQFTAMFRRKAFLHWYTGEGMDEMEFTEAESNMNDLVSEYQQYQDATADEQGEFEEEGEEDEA
# T2 sequence (Q9NQR1 1-352 isoform Q9NQR1-2): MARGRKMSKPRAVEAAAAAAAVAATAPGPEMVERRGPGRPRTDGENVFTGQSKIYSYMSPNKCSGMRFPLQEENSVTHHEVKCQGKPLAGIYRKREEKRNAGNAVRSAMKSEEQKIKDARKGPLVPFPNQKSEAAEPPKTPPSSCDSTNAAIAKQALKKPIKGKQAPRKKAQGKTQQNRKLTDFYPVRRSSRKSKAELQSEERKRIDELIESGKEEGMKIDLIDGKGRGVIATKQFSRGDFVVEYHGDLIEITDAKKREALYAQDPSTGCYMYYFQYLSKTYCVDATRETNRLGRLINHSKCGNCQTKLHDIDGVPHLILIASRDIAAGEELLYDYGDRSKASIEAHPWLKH
# T4 sequence (Q12800 whole entry): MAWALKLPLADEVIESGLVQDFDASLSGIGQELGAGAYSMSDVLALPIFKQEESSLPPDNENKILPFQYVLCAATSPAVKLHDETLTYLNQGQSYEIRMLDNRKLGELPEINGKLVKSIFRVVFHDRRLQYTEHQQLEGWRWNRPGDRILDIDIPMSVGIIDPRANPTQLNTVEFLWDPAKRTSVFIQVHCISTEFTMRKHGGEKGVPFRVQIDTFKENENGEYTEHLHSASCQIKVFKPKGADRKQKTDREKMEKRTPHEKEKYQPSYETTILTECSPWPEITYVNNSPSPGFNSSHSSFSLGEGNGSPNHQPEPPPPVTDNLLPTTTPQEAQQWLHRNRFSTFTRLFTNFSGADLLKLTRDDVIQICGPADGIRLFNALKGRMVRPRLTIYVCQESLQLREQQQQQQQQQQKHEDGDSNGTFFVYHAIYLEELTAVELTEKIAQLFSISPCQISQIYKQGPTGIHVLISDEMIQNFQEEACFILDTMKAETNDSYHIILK
# T1 sequence (M3V851 1-502): as the sequence (Q12800 whole entry) above, with T168N, S302P counted along it
GI50 (SNU-423 cells),GI50 (HuH7 cells),GI50 (CaCo-2 cells),GI50 (HCT-15 cells),GI50 (HT-29 cells),SMILES,decrease of tubulin methylation by SET8 [1],effect on enhancement of tubulin methylation by exogenously added LSF [2],effect on SET8 methylation of Histone H4 [3],effect on tubulin polymerization in vitro (tubulin),co-immunoprecipitation of LSF with endogenous α-tubulin (LSF-tubulin interaction),mitotic phenotype (synchronized HCC cells),"reversibility of mitotic arrest after washout (synchronized HeLa cells; 5 μM for 10 hours, then washout, 24 hours post release)","multi-aster formation (synchronized HeLa cells; synchronized cells, short treatment prior to mitosis (FIG. 8C))",chromosome and spindle phenotype (DNA and α-tubulin immunofluorescence) (RPE-hTERT Flp-In cells),apoptosis in HCC cell line (aggressive HCC cell line),toxicity to normal tissues (HCC tumors; mouse HCC models),tumor growth in mouse HCC models (HCC tumors; multiple mouse HCC models)
,,,,,CCOc1ccccc1C1CC(=O)Nc2cc3c(cc21)OCO3 (stereo not shown) [FQI1],~3 fold,inhibited the ability of exogenously added LSF to enhance methylation of tubulin by SET8,does not affect,inhibited tubulin polymerization,disrupted,abnormal mitotic phenotypes,reversible,concentration-dependent increase in multi-aster formation,"condensed, but nonaligned chromosomes and disrupted spindles",induces apoptosis,no observable toxicity to normal tissues,significantly inhibits tumor growth
147 nM,126 nM,,,,CCOc1cc(N(C)C)ccc1[C@@H]1CC(=O)Nc2cc3c(cc21)OCCO3 [(R)-FQI-37],,,,,,,,,,,,
141 nM,70 nM,141 nM,18 nM,398 nM,"CCOc1cc(N(C)C)ccc1C1CC(=O)Nc2cc3c(cc21)OCCO3 (racemic) [FQI-37, 9-[4-(dimethylamino)-2-ethoxy-phenyl]-3,6,8,9-tetrahydro-2H-[1,4]dioxino[2,3-g]quinolin-7-one]",,,,,,,,,,,,
